Measurements as given in ChEMBL document CHEMBL1129292, “Theoretical study of inhibition of adenosine deaminase by (8R)-coformycin and (8R)-deoxycoformycin” (J Med Chem, 1996).

Biological target: T1, Adenosine deaminase (Homo sapiens, UniProt P00813)
T1 sequence (P00813 whole entry): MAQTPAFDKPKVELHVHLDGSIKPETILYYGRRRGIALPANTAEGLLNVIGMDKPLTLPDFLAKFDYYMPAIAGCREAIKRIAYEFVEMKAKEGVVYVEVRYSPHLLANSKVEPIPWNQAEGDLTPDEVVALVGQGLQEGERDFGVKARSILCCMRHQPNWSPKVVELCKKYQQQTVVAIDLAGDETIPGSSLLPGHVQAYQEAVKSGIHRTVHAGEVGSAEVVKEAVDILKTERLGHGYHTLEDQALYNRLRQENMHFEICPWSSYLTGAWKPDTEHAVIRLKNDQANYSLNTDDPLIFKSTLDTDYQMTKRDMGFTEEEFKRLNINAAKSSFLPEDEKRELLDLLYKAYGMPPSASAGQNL
Test: Binding affinity towards Adenosine deaminase

## OCC1OC(n2cnc3c2N=CCC[C@H]3O)[C@@H](O)[C@H]1O (single isomer, unassigned) [CONFORMYCIN]
  Ki: 10 pM

## OCC1OC(n2cnc3c2N=CCC[C@H]3O)C[C@H]1O (single isomer, unassigned)
  Ki: 2.5 pM
